One data set deals with T1, CCR5 (Homo sapiens, UniProt P51681).
T1 construct: expressed in transfected cells
As to the kind of experiment: Calcium mobilization assay (RANTES-induced, Fluo-4 AM). The data set is classed as cell-based. Particulars: for IC50: CHO cells stably expressing CCR5 and Gα16, RANTES 30 nM, read-out: IC50 (antagonistic activity against CCR5); for effect of structural change on potency relative to compound 2: SAR statement from IC50 values. As to the method: For the primary assay, the percent inhibitory rates of the compounds 1, 2 and 2a-l at 1 μM were measured. Except compounds 2a and 2c, the other twelve compounds were remarkably antagonist of CCR5 activity. Therefore, we determined their IC50 values (Table 1).
CHO cells stably expressing CCR5 and Gα16 were loaded with 2 μmol/L Fluo-4 AM in Hanks balanced salt solution (HBSS, containing KCl 5.4 mM, Na2HPO4 0.3 mM, KH2PO4 0.4 mM, NaHCO3 4.2 mM, CaCl2 1.3 mM, MgCl2 0.5 mM, Mg2SO4 0.6 mM, NaCl 137 mM, BSA 5 g/L, Glucose 5.6 mM, Sulfinpyrazone 250 μM, pH 7.4) at 37 °C for 45 minutes. After the cells being rinsed with the reaction buffer, 50 μL HBSS containing known antagonists (positive control), compounds of interest or DMSO (negative control, final concentration 1%) were added. After incubation at room temperature for 10 minutes, 25 μL RANTES (final concentration 30 nM) was dispensed into the well using a FlexStation II micro-plate reader (Molecular Devices, Sunnyvale, CA, USA) and intracellular calcium change was recorded with an excitation wavelength of 485 nm and emission wavelength of 525 nm. The half maximal inhibitory concentrations (IC50s) of compounds were determined with GraphPad Prism software by constructing their dose-response curves.
(Calcium assays in cells follow changes in intracellular calcium, usually with a dye or a luminescent sensor.)

Molecules are shown by their SMILES.

T1 sequence (P51681 whole entry): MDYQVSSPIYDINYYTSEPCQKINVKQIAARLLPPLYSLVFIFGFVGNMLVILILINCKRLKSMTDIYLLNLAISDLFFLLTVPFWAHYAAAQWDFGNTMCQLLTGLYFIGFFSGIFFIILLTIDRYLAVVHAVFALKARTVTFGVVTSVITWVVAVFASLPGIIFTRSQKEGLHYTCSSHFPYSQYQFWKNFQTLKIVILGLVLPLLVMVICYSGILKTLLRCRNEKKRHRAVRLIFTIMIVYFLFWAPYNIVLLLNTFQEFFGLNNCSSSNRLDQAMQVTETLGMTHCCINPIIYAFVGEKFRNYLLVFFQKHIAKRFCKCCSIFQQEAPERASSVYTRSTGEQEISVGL

As usually defined, the IC50 is the concentration that gives 50% inhibition. For the compound `O=C(N[C@@H](CCN1CCN(c2ccncc2)CC1)c1ccccc1)C1CCC(F)(F)CC1` [Compound 2i, N-((S)-3-(4-(pyridin-4-yl)piperazin-1-yl)-1-phenylpropyl)-4,4-difluorocyclohexanecarboxamide], the IC50 on CCR5 is over 10000 nM.

The melting point is the temperature, or range, at which the solid turns liquid. Regarding `O=C(N[C@@H](CCN1CCN(c2ccc3ccccc3n2)CC1)c1ccccc1)C1CCC(F)(F)CC1` [Compound 2j, N-((S)-3-(4-(Quinolin-2-yl)piperazin-1-yl)-1-phenylpropyl)-4,4-difluorocyclohexanecarboxamide], the melting point is 50 to 53 °C. Besides, at CCR5, the IC50 was 233 nM. Further, the “fold increase in potency compared with compound 2” value at CCR5 (ratio of IC50 values, vs compound 2) amounted to 3 fold.

For `O=C(C1CCC(F)(F)CC1)N1CCN(c2ccnc3cc(Cl)ccc23)CC1` [Compound 2l, (4-(7-chloroquinolin-4-yl)piperazin-1-yl)(4,4-difluorocyclohexyl)methanone], on CCR5, the IC50 was over 1000 nM and the “effect of structural change on potency relative to compound 2” value is “nearly leads to a loss of potency”.

Consider `O=C(N[C@@H](CCN1CCN(c2ccnc3cc(Cl)ccc23)CC1)c1ccccc1)C1CCC(F)(F)CC1` [Compound 2, N-((S)-3-(4-(7-Chloroquinolin-4-yl)piperazin-1-yl)-1-phenylpropyl)-4,4-difluorocyclohexanecarbox-amide], for which the IC50 on CCR5 worked out at 692 nM. Also, at CCR5 (ratio of IC50 values, vs compound 1), the “fold change of IC50 compared to compound 1” value is recorded as 3 fold.

On to `Cc1ccc(S(=O)(=O)N[C@@H](CCN2CCN(c3ccnc4cc(Cl)ccc34)CC2)c2ccccc2)cc1` [Compound 2f, N-((S)-3-(4-(7-Chloroquinolin-4-yl)piperazin-1-yl)-1-phenylpropyl)-4-methylbenzenesulfonamide], for which the melting point was 132 to 136 °C. At CCR5, the IC50 is over 10000 nM and the “effect of structural change on potency relative to compound 2” value is listed as “decrease or loss of potency”.

`O=C(N[C@@H](CCN1CCN(c2ccnc3cc(Cl)ccc23)CC1)c1ccccc1)C1CCCCC1` [Compound 2b, N-((S)-3-(4-(7-Chloroquinolin-4-yl)piperazin-1-yl)-1-phenylpropyl)cyclohexanecarboxamide] registered a melting point of 153 to 158 °C. Also, the IC50 on CCR5 was 2660 nM.

With `O=C1CCC(C(=O)N[C@@H](CCN2CCN(c3ccnc4cc(Cl)ccc34)CC2)c2ccccc2)CC1` [Compound 2d, N-((S)-3-(4-(7-Chloroquinolin-4-yl)piperazin-1-yl)-1-phenylpropyl)-4-oxocyclohexanecarboxamide], the melting point lay within 56 to 59 °C. Moreover, on CCR5, the IC50 was over 1000 nM.

With `O=C(N[C@@H](CCN1CCN(c2ncccn2)CC1)c1ccccc1)C1CCC(F)(F)CC1` [Compound 2g, N-((S)-3-(4-(Pyrimidin-2-yl)piperazin-1-yl)-1-phenylpropyl)-4,4-difluorocyclohexanecarboxamide], the IC50 at CCR5 was over 1000 nM.

Regarding `O=C(Cc1ccccc1)N[C@@H](CCN1CCN(c2ccnc3cc(Cl)ccc23)CC1)c1ccccc1` [Compound 2e, N-((S)-3-(4-(7-Chloroquinolin-4-yl)piperazin-1-yl)-1-phenylpropyl)-2-phenylacetamide], the melting point is 69 to 72 °C. For the same compound, at CCR5, the IC50 was over 10000 nM.

`O=C(N[C@@H](CCN1CCN(c2ccnc3cc(Cl)ccc23)CC1)c1ccccc1)c1ccc(F)cc1` [Compound 2a, N-((S)-3-(4-(7-Chloroquinolin-4-yl)piperazin-1-yl)-1-phenylpropyl)-4-fluorobenzamide]: the melting point lay in the range of 77 to 79 °C.

For `O=C(N[C@@H](CCN1CCN(c2ncnc3[nH]cnc23)CC1)c1ccccc1)C1CCC(F)(F)CC1` [Compound 2h, N-((S)-3-(4-(9H-Purin-6-yl)piperazin-1-yl)-1-phenylpropyl)-4,4-difluorocyclohexanecarboxamide], the IC50 at CCR5 is over 10000 nM.

As to `O=C(NC(CCN1CCN(c2ccnc3cc(Cl)ccc23)CC1)c1ccccc1)C1CCC(F)(F)CC1` (centres unmarked) [Compound 2k, N-(3-(4-(7-Chloroquinolin-4-yl)piperazin-1-yl)-1-phenylpropyl)-4,4-difluorocyclohexanecarboxamide], at CCR5, the IC50 is 669 nM and the “effect of structural change on potency relative to compound 2” value was “no effect on potency”.

For the compound `O=C(CCC(=O)N1CCN(c2ccnc3cc(Cl)ccc23)CC1)N1CCN(c2ccnc3cc(Cl)ccc23)CC1` [Compound 1, 1,4-bis(4-(7-chloroquinolin-4-yl)piperazin-1-yl)butane-1,4-dione], at CCR5, the IC50 came out at 2000 nM.

Source of the values: PMC6245477, “Discovery of a Novel CCR5 Antagonist Lead Compound Through Fragment Assembly” (Molecules, 2008).
